Values of other authors, collected in PMC11267572, “A Repurposed Drug Interferes with Nucleic Acid to Inhibit the Dual Activities of Coronavirus Nsp13” (ACS Chemical Biology, 2024).

Test system: SARS-CoV-2 Omicron variant
Design: method as in PMID 36899912
Conditions: bronchial epithelial cells; cited from earlier work

In the case of `O=C(NCc1ccc(Oc2ccccc2)cc1)c1nc(-c2cc(Br)c(O)c(Br)c2)no1` [IOWH-032], the “inhibition of viral replication” value is given as “micromolar inhibition”.
